Data published in patent US20240374587A1, “MEDICINE FOR PREVENTION AND TREATMENT OF DISEASES LINKED TO ANTI-OBESITY ACTIVITY” (Shionogi & Co., Ltd., priority 2021, published 2024).

molecular target: human MGAT2 (Homo sapiens (Human), UniProt Q3SYC2); test: Measurement of human MGAT2 inhibitory activity; assay type: biochemical; details: concentration exhibiting 50% enzyme inhibition
Method: Solutions of the compounds of the present invention in DMSO were each aliquoted into 0.2·μL portions in a 384-well polystyrene microplate produced by Corning Incorporated, and 5 μL of an enzyme solution prepared with an assay buffer (100 mmol/L phosphate buffer (pH 7.4) containing 2 mmol/L DTT) and 5 μL of a substrate solution (100 mmol/L phosphate buffer (pH 7.4), 30 μmol/L 2-Oleoylglycerol, 10 μmol/L Oleoyl-CoA) were added thereto, and the resultant was stirred and centrifuged, and incubated in a moist chamber at room temperature for 1 hour. After enzymatic reaction, 50 μL of a quenching solution (containing 0.2 μmol/L Diolein-d5, 0.4% formic acid, and 50% isopropanol) containing Internal Standard (IS) was added to terminate the reaction, and the resultant was sealed in a plate produced by Shimadzu GLC Ltd., and then stirred and centrifuged, and measurement was performed by using an electrospray ionization method with a RapidFire360 and Agilent 6550 Q-TOF mass spectrometer. Diolein as a reaction product (P) of 2-Oleoylglycerol as the substrate and an ammonium adduct ion of the IS were detected, and the peak intensity ratio, P/IS, was calculated from the peak heights to evaluate the inhibitory activity. Inhibitory activities with/without addition of enzyme were defined as Control (+)/Control (−), respectively, and the respective % inhibitions were defined as 0% inhibition and 100% inhibition. The inhibitory activity was calculated from the formula below with TIBCO Spotfire (produced by TIBCO Software Inc.) with the peak intensity ratio, P/IS, at the time of addition of the compound of the present invention being as Sample: […]

Chain of human MGAT2 (Q3SYC2 whole entry): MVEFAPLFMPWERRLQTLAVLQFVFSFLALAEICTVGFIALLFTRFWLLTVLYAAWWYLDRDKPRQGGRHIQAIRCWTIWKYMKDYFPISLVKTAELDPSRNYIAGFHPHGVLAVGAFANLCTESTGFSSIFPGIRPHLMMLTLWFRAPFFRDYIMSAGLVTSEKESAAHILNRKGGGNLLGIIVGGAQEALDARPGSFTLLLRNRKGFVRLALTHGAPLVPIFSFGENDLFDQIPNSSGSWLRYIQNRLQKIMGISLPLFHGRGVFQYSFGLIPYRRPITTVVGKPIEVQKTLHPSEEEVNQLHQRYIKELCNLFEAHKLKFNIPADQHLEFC

Compound | IC50 [nM]
CS(=O)(=O)CC(=O)Nc1c(-c2ccc(C3CC3)cn2)nn2c1C(=O)N[C@@]1(CCc3cc(F)cc(F)c31)C2 [I′-141] | 6.42
CCS(=O)(=O)CC(=O)Nc1c(-c2ccc(F)cn2)nn2c1C(=O)N[C@@]1(CCc3cc(F)cc(F)c31)C2 [I′-123] | 8.48
Cc1ccc(-n2nc3c(c2NC(=O)CS(C)(=O)=O)C(=O)N[C@@]2(CCOc4cc(C5CC5)ccc42)C3)nc1 [II-168] | 1.88
CS(=O)(=O)CC(=O)Nc1c(-c2ccc(C(F)F)cn2)nn2c1C(=O)N[C@@]1(CCOc3cc(F)cc(F)c31)C2 [I′-153] | 2.23
CS(=O)(=O)CC(=O)Nc1c(-c2ccc(C(F)F)cc2)nn2c1C(=O)N[C@@]1(CCOc3cc(F)cc(F)c31)C2 [I′-145] | 2.9
Cc1ccc(-c2nn3c(c2NC(=O)CS(C)(=O)=O)C(=O)N[C@@]2(CCOc4cc(F)cc(F)c42)C3)nc1 [I′-124] | 6.5
CS(=O)(=O)CC(=O)Nc1c(-c2ccc(Cl)cn2)nn2c1C(=O)N[C@]1(CCOc3cc(F)cc(F)c31)C2 [I′-151] | 5.33
CS(=O)(=O)CC(=O)Nc1c(-c2ccc(C3CC3)cn2)nn2c1C(=O)N[C@@]1(CCOc3cc(F)cc(F)c31)C2 [I′-143] | 3.43
CS(=O)(=O)CC(=O)Nc1c(-c2ccc(Cl)cn2)nn2c1C(=O)N[C@@]1(CCOc3cc(F)cc(F)c31)C2 [I′-137] | 1.53

The remaining lines, values ahead:

IC50 [nM] | Compound
0.85 | CS(=O)(=O)CC(=O)Nc1c(-c2ccc(F)cc2)nn2c1C(=O)N[C@@]1(CCOc3cc(OCC(F)(F)F)ccc31)C2 [I′-066]
6.5 | CS(=O)(=O)CC(=O)Nc1c2c(nn1-c1ccccn1)C[C@]1(CCc3cc(OCCCC(F)(F)F)ccc31)NC2=O [Compound I-023]
1.21 | CS(=O)(=O)CC(=O)Nc1c2c(nn1CCCOC(F)(F)F)C[C@@]1(CCc3cc(OCC(F)(F)F)cc(F)c31)NC2=O [II-093]
6.9 | CS(=O)(=O)CC(=O)Nc1c2c(nn1CCCC(F)(F)F)C[C@@]1(CCc3cc(OCC(F)(F)F)ccc31)NC2=O [Compound I-212]
2.9 | CS(=O)(=O)CC(=O)Nc1c2c(nn1-c1ccc(C#N)cn1)C[C@]1(CCc3cc(OCC(F)(F)F)ccc31)NC2=O [Compound I-190]
0.22 | Cc1cc(-n2nc3c(c2NC(=O)CS(C)(=O)=O)C(=O)N[C@@]2(CCOc4cc(OCCCC(F)(F)F)ccc42)C3)no1 [II-233]
2.05 | Cc1ccc(-n2nc3c(c2NC(=O)CS(C)(=O)=O)C(=O)N[C@@]2(CCOc4cc(OCC(C)(F)F)ccc42)C3)nc1 [II-151]
18 | CS(=O)(=O)CC(=O)Nc1c2c(nn1-c1ccccc1)C[C@]1(CCc3cc(OCCCC(F)(F)F)ccc31)NC2=O [Compound I-034]
9.78 | CS(=O)(=O)CC(=O)Nc1c(CCC(F)(F)F)nn2c1C(=O)N[C@@]1(CCc3cc(OCC(F)(F)F)ccc31)C2 [I′-058]
2 | Cc1ccc(-n2nc3c(c2NC(=O)CS(C)(=O)=O)C(=O)N[C@@]2(CCOc4cc(OCC(F)(F)F)ccc42)C3)nc1 [Compound I-275]

test system: C57BL/6j mice (DIO mice); test: Anti-obesity effect test in DIO mice (body weight, food consumption); assay type: in vivo; set-up: concentration or dose not given beside the values; details: 1st week of administration, liraglutide study
Method: The anti-obesity effect of the compound and/or agent according to the present invention was examined by using C57BL/6j mice (DIO mice) provided with a high-fat diet (TestDiet; 58Y1).
Five-week-old male C57BL/6j mice (CLEA Japan. Inc.) were purchased, and grown with feeding of a high-fat diet under 12-hour light-dark cycles for 4 weeks to produce DIO mice. A medium (0.5% HPMC and physiological saline) was administered once a day from 3 weeks before administration of the compound. Randomization was performed for grouping (n=9 to 10) on the basis of body weight and change in food consumption during the period of administration for conditioning. From Day 0 to Day 35, gavage of vehicle (0.5% HPMC and physiological saline) (hereinafter, Control group), gavage of Compound (A) according to the present invention (hereinafter, (A)-administration group), subcutaneous administration of GLP-1 formulation (liraglutide or semaglutide) as Compound (B) according to the present invention (hereinafter, (B)-administration group), or both (hereinafter, the combined administration group) were performed once a day. The GLP-1 formulation was formulated in an increasing dose, and liraglutide and semaglutide were administered at 4 to 20 μg/kg and:3 to 15 μg/kg, respectively, once a day. During the administration period, daily body weight measurement and food consumption measurement once a week were performed.

Compound | Rate of decrease in food consumption relative to control group [%]
CCCCCCCCCCCCCCCC(=O)N[C@@H](CCC(=O)NCCCC[C@H](NC(=O)[C@H](C)NC(=O)[C@H](C)NC(=O)[C@H](CCC(N)=O)NC(=O)CNC(=O)[C@H](CCC(=O)O)NC(=O)[C@H](CC(C)C)NC(=O)[C@H](Cc1ccc(O)cc1)NC(=O)[C@H](CO)NC(=O)[C@H](CO)NC(=O)[C@@H](NC(=O)[C@H](CC(=O)O)NC(=O)[C@H](CO)NC(=O)[C@@H](NC(=O)[C@H](Cc1ccccc1)NC(=O)[C@@H](NC(=O)CNC(=O)[C@H](CCC(=O)O)NC(=O)[C@H](C)NC(=O)[C@@H](N)Cc1cnc[nH]1)[C@@H](C)O)[C@@H](C)O)C(C)C)C(=O)N[C@@H](CCC(=O)O)C(=O)N[C@@H](Cc1ccccc1)C(=O)N[C@H](C(=O)N[C@@H](C)C(=O)N[C@@H](Cc1c[nH]c2ccccc12)C(=O)N[C@@H](CC(C)C)C(=O)N[C@H](C(=O)N[C@@H](CCCNC(=N)N)C(=O)NCC(=O)N[C@@H](CCCNC(=N)N)C(=O)NCC(=O)O)C(C)C)[C@@H](C)CC)C(=O)O [Liraglutide, liraglutide, reference compound] | 4.6

same assay, conditions: 2nd week of administration, liraglutide study

Compound | Rate of decrease in food consumption relative to control group [%]
CCCCCCCCCCCCCCCC(=O)N[C@@H](CCC(=O)NCCCC[C@H](NC(=O)[C@H](C)NC(=O)[C@H](C)NC(=O)[C@H](CCC(N)=O)NC(=O)CNC(=O)[C@H](CCC(=O)O)NC(=O)[C@H](CC(C)C)NC(=O)[C@H](Cc1ccc(O)cc1)NC(=O)[C@H](CO)NC(=O)[C@H](CO)NC(=O)[C@@H](NC(=O)[C@H](CC(=O)O)NC(=O)[C@H](CO)NC(=O)[C@@H](NC(=O)[C@H](Cc1ccccc1)NC(=O)[C@@H](NC(=O)CNC(=O)[C@H](CCC(=O)O)NC(=O)[C@H](C)NC(=O)[C@@H](N)Cc1cnc[nH]1)[C@@H](C)O)[C@@H](C)O)C(C)C)C(=O)N[C@@H](CCC(=O)O)C(=O)N[C@@H](Cc1ccccc1)C(=O)N[C@H](C(=O)N[C@@H](C)C(=O)N[C@@H](Cc1c[nH]c2ccccc12)C(=O)N[C@@H](CC(C)C)C(=O)N[C@H](C(=O)N[C@@H](CCCNC(=N)N)C(=O)NCC(=O)N[C@@H](CCCNC(=N)N)C(=O)NCC(=O)O)C(C)C)[C@@H](C)CC)C(=O)O [Liraglutide, liraglutide, reference compound] | 9.4

same assay, conditions: 3rd week of administration, liraglutide study

Compound | Rate of decrease in food consumption relative to control group [%]
CCCCCCCCCCCCCCCC(=O)N[C@@H](CCC(=O)NCCCC[C@H](NC(=O)[C@H](C)NC(=O)[C@H](C)NC(=O)[C@H](CCC(N)=O)NC(=O)CNC(=O)[C@H](CCC(=O)O)NC(=O)[C@H](CC(C)C)NC(=O)[C@H](Cc1ccc(O)cc1)NC(=O)[C@H](CO)NC(=O)[C@H](CO)NC(=O)[C@@H](NC(=O)[C@H](CC(=O)O)NC(=O)[C@H](CO)NC(=O)[C@@H](NC(=O)[C@H](Cc1ccccc1)NC(=O)[C@@H](NC(=O)CNC(=O)[C@H](CCC(=O)O)NC(=O)[C@H](C)NC(=O)[C@@H](N)Cc1cnc[nH]1)[C@@H](C)O)[C@@H](C)O)C(C)C)C(=O)N[C@@H](CCC(=O)O)C(=O)N[C@@H](Cc1ccccc1)C(=O)N[C@H](C(=O)N[C@@H](C)C(=O)N[C@@H](Cc1c[nH]c2ccccc12)C(=O)N[C@@H](CC(C)C)C(=O)N[C@H](C(=O)N[C@@H](CCCNC(=N)N)C(=O)NCC(=O)N[C@@H](CCCNC(=N)N)C(=O)NCC(=O)O)C(C)C)[C@@H](C)CC)C(=O)O [Liraglutide, liraglutide, reference compound] | 3.1

same assay, conditions: 4th week of administration, liraglutide study

Compound | Rate of decrease in food consumption relative to control group [%]
CCCCCCCCCCCCCCCC(=O)N[C@@H](CCC(=O)NCCCC[C@H](NC(=O)[C@H](C)NC(=O)[C@H](C)NC(=O)[C@H](CCC(N)=O)NC(=O)CNC(=O)[C@H](CCC(=O)O)NC(=O)[C@H](CC(C)C)NC(=O)[C@H](Cc1ccc(O)cc1)NC(=O)[C@H](CO)NC(=O)[C@H](CO)NC(=O)[C@@H](NC(=O)[C@H](CC(=O)O)NC(=O)[C@H](CO)NC(=O)[C@@H](NC(=O)[C@H](Cc1ccccc1)NC(=O)[C@@H](NC(=O)CNC(=O)[C@H](CCC(=O)O)NC(=O)[C@H](C)NC(=O)[C@@H](N)Cc1cnc[nH]1)[C@@H](C)O)[C@@H](C)O)C(C)C)C(=O)N[C@@H](CCC(=O)O)C(=O)N[C@@H](Cc1ccccc1)C(=O)N[C@H](C(=O)N[C@@H](C)C(=O)N[C@@H](Cc1c[nH]c2ccccc12)C(=O)N[C@@H](CC(C)C)C(=O)N[C@H](C(=O)N[C@@H](CCCNC(=N)N)C(=O)NCC(=O)N[C@@H](CCCNC(=N)N)C(=O)NCC(=O)O)C(C)C)[C@@H](C)CC)C(=O)O [Liraglutide, liraglutide, reference compound] | 2.4

same assay, conditions: 5th week of administration, liraglutide study

Compound | Rate of decrease in food consumption relative to control group [%]
CCCCCCCCCCCCCCCC(=O)N[C@@H](CCC(=O)NCCCC[C@H](NC(=O)[C@H](C)NC(=O)[C@H](C)NC(=O)[C@H](CCC(N)=O)NC(=O)CNC(=O)[C@H](CCC(=O)O)NC(=O)[C@H](CC(C)C)NC(=O)[C@H](Cc1ccc(O)cc1)NC(=O)[C@H](CO)NC(=O)[C@H](CO)NC(=O)[C@@H](NC(=O)[C@H](CC(=O)O)NC(=O)[C@H](CO)NC(=O)[C@@H](NC(=O)[C@H](Cc1ccccc1)NC(=O)[C@@H](NC(=O)CNC(=O)[C@H](CCC(=O)O)NC(=O)[C@H](C)NC(=O)[C@@H](N)Cc1cnc[nH]1)[C@@H](C)O)[C@@H](C)O)C(C)C)C(=O)N[C@@H](CCC(=O)O)C(=O)N[C@@H](Cc1ccccc1)C(=O)N[C@H](C(=O)N[C@@H](C)C(=O)N[C@@H](Cc1c[nH]c2ccccc12)C(=O)N[C@@H](CC(C)C)C(=O)N[C@H](C(=O)N[C@@H](CCCNC(=N)N)C(=O)NCC(=O)N[C@@H](CCCNC(=N)N)C(=O)NCC(=O)O)C(C)C)[C@@H](C)CC)C(=O)O [Liraglutide, liraglutide, reference compound] | 1.5

same assay, conditions: at final administration (Day 0 to Day 35, once a day), liraglutide study (FIG. 1)

Compound | Rate of decrease in body weight relative to control group [%]
CCCCCCCCCCCCCCCC(=O)N[C@@H](CCC(=O)NCCCC[C@H](NC(=O)[C@H](C)NC(=O)[C@H](C)NC(=O)[C@H](CCC(N)=O)NC(=O)CNC(=O)[C@H](CCC(=O)O)NC(=O)[C@H](CC(C)C)NC(=O)[C@H](Cc1ccc(O)cc1)NC(=O)[C@H](CO)NC(=O)[C@H](CO)NC(=O)[C@@H](NC(=O)[C@H](CC(=O)O)NC(=O)[C@H](CO)NC(=O)[C@@H](NC(=O)[C@H](Cc1ccccc1)NC(=O)[C@@H](NC(=O)CNC(=O)[C@H](CCC(=O)O)NC(=O)[C@H](C)NC(=O)[C@@H](N)Cc1cnc[nH]1)[C@@H](C)O)[C@@H](C)O)C(C)C)C(=O)N[C@@H](CCC(=O)O)C(=O)N[C@@H](Cc1ccccc1)C(=O)N[C@H](C(=O)N[C@@H](C)C(=O)N[C@@H](Cc1c[nH]c2ccccc12)C(=O)N[C@@H](CC(C)C)C(=O)N[C@H](C(=O)N[C@@H](CCCNC(=N)N)C(=O)NCC(=O)N[C@@H](CCCNC(=N)N)C(=O)NCC(=O)O)C(C)C)[C@@H](C)CC)C(=O)O [Liraglutide, liraglutide, reference compound] | 4.2
